Numbered stars: 1 amine (or outer) side, 2 acyl side, 3 side chain; on linkers, the order of the positions; unused ones are H or OH. Peptide text beside a SMILES is read from it. * marks the point of attachment. C20 diacid = O=C(O)CCCCCCCCCCCCCCCCCCC(=O)*; C18 diacid = O=C(O)CCCCCCCCCCCCCCCCC(=O)*; γGlu = O=C(O)[C@H](CCC(=O)[*:2])N[*:1]
Assay: Assay (IV) determination of solubility
Type: physicochemical
Description: Assay (IV)—Determination of Solubility
The mimylin peptide was dissolved in water at ˜500 nmol/ml and mixed 1:1 with a series of buffers (100 mM glycylglycine pH 3.0, 100 mM glycylglycine pH 4.0, 100 mM glycylglycine pH 5.0, 100 mM bistrispropane pH 6.0, 100 mM bistrispropane pH 6.5, 100 mM bistrispropane pH 7.0, 100 mM bistrispropane pH 7.5, 100 mM bistrispropane pH 8.0).

CC(C)C[C@H](NC(=O)CNC(=O)[C@H](CO)NC(=O)[C@H](C)NC(=O)CC[C@H](NC(=O)CCCCCCCCCCCCCCCCCCC(=O)O)C(=O)O)C(=O)N[C@@H](CO)C(=O)N[C@H](C(=O)N[C@@H](C)C(=O)N[C@@H](C)C(=O)N[C@@H](CC(C)C)C(=O)NCC(=O)N[C@@H](CCCNC(=N)N)C(=O)N[C@@H](CC(C)C)C(=O)N[C@@H](CO)C(=O)N[C@@H](CCC(=O)O)C(=O)N[C@@H](CCC(=O)O)C(=O)N[C@@H](CC(C)C)C(=O)N[C@@H](Cc1cnc[nH]1)C(=O)N[C@@H](CCC(=O)O)C(=O)N[C@@H](CC(C)C)C(=O)N[C@@H](CCC(N)=O)C(=O)N[C@H](C(=O)N[C@@H](Cc1ccc(O)cc1)C(=O)N1CCC[C@H]1C(=O)N[C@@H](CCCNC(=N)N)C(=O)N[C@H](C(=O)N[C@@H](CCC(=O)O)C(=O)N[C@H](C(=O)NCC(=O)N[C@@H](CO)C(=O)NCC(=O)N[C@H](C(=O)N[C@@H](Cc1ccc(O)cc1)C(N)=O)[C@@H](C)O)[C@@H](C)O)[C@@H](C)O)[C@@H](C)O)[C@@H](C)O [compound 113, [N-terminal(C20 diacid-gGlu), des1, 4G, 15E, 21Q, 23Y, 30S, 31G, 32T, 33Y]mimylin] ({C20 diacid-γGlu}-ASGLSTAALGRLSEELHELQTYPRTETGSGTY-NH2)
57 µM: solubility at 18 h (pH 5.0)
≧200 μM: Solubility (pH 3.0) | Solubility (pH 6.0) | Solubility (pH 6.5) | Solubility (pH 7.0) | Solubility (pH 7.5) | Solubility (pH 8.0)
195 µM: solubility at 18 h (pH 4.0)

CC(C)C[C@H](NC(=O)[C@H](C)NC(=O)[C@@H](NC(=O)[C@H](CO)NC(=O)[C@H](CC(C)C)NC(=O)[C@H](CCC(=O)O)NC(=O)[C@H](CO)NC(=O)[C@H](C)NC(=O)[C@H](CCC(=O)O)NC(=O)CCCCCCCCCCCCCCCCC(=O)O)[C@@H](C)O)C(=O)N[C@@H](CC(C)C)C(=O)NCC(=O)N[C@@H](CCCNC(=N)N)C(=O)N[C@@H](CC(C)C)C(=O)N[C@@H](CO)C(=O)N[C@@H](C)C(=O)N[C@@H](CCC(=O)O)C(=O)N[C@@H](CC(C)C)C(=O)N[C@@H](Cc1cnc[nH]1)C(=O)N[C@@H](CCC(=O)O)C(=O)N[C@@H](CC(C)C)C(=O)N[C@@H](C)C(=O)N[C@H](C(=O)N[C@@H](CC(C)C)C(=O)N1CCC[C@H]1C(=O)N[C@@H](CCCNC(=N)N)C(=O)N[C@H](C(=O)N[C@@H](CCC(=O)O)C(=O)N[C@H](C(=O)NCC(=O)N1CCC[C@H]1C(=O)N[C@@H](CCC(=O)O)C(=O)N[C@@H](CO)C(=O)N1CCC[C@H]1C(N)=O)[C@@H](C)O)[C@@H](C)O)[C@@H](C)O [compound 14, [N-terminal(C18 diacid), 9L]mimylin] ({C18 diacid}-EASELSTALLGRLSAELHELATLPRTETGPESP-NH2)
≧200 μM: Solubility (pH 3.0) | Solubility (pH 4.0) | Solubility (pH 5.0) | Solubility (pH 6.0) | Solubility (pH 6.5) | Solubility (pH 7.0) | Solubility (pH 7.5) | Solubility (pH 8.0)
